# Paper PMC11395333, “The Bifunctional Dimer Caffeine-Indan Attenuates α-Synuclein Misfolding, Neurodegeneration and Behavioral Deficits after Chronic Stimulation of Adenosine A1 Receptors” (International Journal of Molecular Sciences, 2024)
# What was measured:
# α-Syn = test system: α-Syn; set-up: method as in PMID 35139916; conditions: co-administration with CPA; cited from earlier work
# [1] = set-up: method as in PMID 34187286; conditions: cited from earlier work
# [2] = extrapolated from unbound CLint in mouse liver microsomes, well-stirred model; cited from earlier work
# [3] = Ex vivo biodistribution in healthy CD-1 mice; conditions: for Biodistribution, blood / Biodistribution, bone / Biodistribution, brain / Biodistribution, heart / Biodistribution, kidney / Biodistribution, large intestine / Biodistribution, liver / Biodistribution, lung / Biodistribution, small intestine / Biodistribution, spleen: tail vein injection
# Protocol: (§1) The liver, pancreas, and brain were collected, washed with saline, placed in water/acetonitrile, and homogenized using the Fisherbrand™ 150 Handheld Homogenizer (Thermo Fisher Scientific, Waltham, MA, USA). The samples were centrifuged at 14,000 relative centrifugal force (rcf) for 5 min (AccuSpin Micro 17, Thermo Fisher Scientific, Waltham, MA, USA). The supernatants were collected and filtered using 0.22 μm organic Millipore-Sigma filters (Oakville, ON, Canada). The clarified filtrate was injected into the HPLC and radioanalytes separated by a reverse phase column (5 μm C18, 9.4 × 250 mm reverse phase column, PN-990967-202, flow rate 5.00 mL/min) using the same gradient elution as described in Table 1. The elution of radioactive metabolites was detected using the radiation detector as described above. […] The mice were euthanized (anesthesia followed by cervical dislocation followed by cardiac puncture and blood draw) at 5, 10, 20, 40, and 60 min p.i., and different organs were harvested (blood, liver, small intestine, kidney, spleen, lung, heart, large intestine, bone, and brain), washed and placed in pre-weighed tubes. The radioactivity in each organ/tissue was measured using a calibrated automatic gamma counter (2480 Perkin Elmer, Waltham MA, USA) and the tissue uptake was expressed as a percentage of injected dose (ID) per gram (% ID/g). All radioactivity measurements were corrected for decay. Data are shown as average mean± SEM, calculated using replication for each sample.
# [4] = In vivo metabolic stability, radio-HPLC of tissue extracts; set-up: species or system CD-1 mice; conditions: liver and pancreas extracts, 40 min p.i.
# Protocol: as §1, with “The” for “The mice were euthanized (anesthesia followed by cervical dislocation followed by cardiac puncture and blood draw) at 5, 10, 20, 40, and 60 min p.i., and different organs were harvested (blood, liver, small intestine, kidney, spleen, lung, heart, large intestine, bone, and brain), washed and placed in pre-weighed tubes. The”
# [5] = Micro-PET/CT dynamic imaging; assay type: in vivo, CD-1 mice
# Protocol: The acquisition of dynamic PET data (10 × 10, 8 × 15, 6 × 20, 6 × 30, 4 × 60, 1 × 100, 4 × 100, 6 × 150, 4 × 300) was started immediately after radiotracer injection, followed by a 1 min CT scan. PET/CT images were registered and reconstructed automatically by the GNEXT system. PET images were reconstructed using a 3D-ordered Subset Expectation Maximization algorithm with 24 subsets and 3 iterations. CT images were reconstructed using a Modified Feldkamp algorithm. All data were analyzed using Vivoquant software (IviCRO) (InVicro, Needham, MA, USA). CT images were used to define anatomical regions of interest (ROIs) through PET/CT image co-registration. The quantification of activity concentration in the brain was performed by drawing ROIs and the mean and maximum standard uptake values (SUVs) were determined using the formula: SUV = [(MBq/mL) × (animal wt. (g))/injected dose (MBq)].
compound,measurement,setting,value
NC1CCc2ccccc21 (stereo not drawn) [1-aminoindan],CPA-induced α-Syn aggregation and neurodegeneration,α-Syn,prevented the CPA-induced α-Syn aggregation and neurodegeneration
CCCn1c(=O)c2[nH]c(C3CCCC3)nc2n(CCC)c1=O [DPCPX],CPA-induced α-Syn aggregation and neurodegeneration,α-Syn,prevented the CPA-induced α-Syn aggregation and neurodegeneration
Cn1c(=O)c2c(nc(CCCCCCNC3CCc4ccccc43)n2CCCF)n(C)c1=O (stereo not drawn) [^19F–C8–6–I],Parent remaining in liver microsomes,"[1]; 1 h incubation, human, mouse and rat liver microsomes",significant percentage of the parent ^19F–C8–6–I remained
same,Defluorination in liver microsomes,"[1]; mouse, rat and human liver microsomes",No defluorination was observed
same,"Predicted in vivo clearance in mouse plasma, CLp",[2],36.0 mL/min/kg
Cn1c(=O)c2c(nc(CCCCCCNC3CCc4ccccc43)n2CCC[18F])n(C)c1=O (stereo not drawn) [^18F–C8–6–I],Defluorination in vivo (from bone uptake),"[3]; mouse, in vivo",little defluorination occurred in vivo
same,blood5min/blood20min,[3]; ratio of blood radioactivity,1.1
same,blood5min/blood60min,[3]; ratio of blood radioactivity,1.9
same,brain5min/brain20min,[3]; ratio of brain uptake,1.7
same,brain5min/brain60min,[3]; ratio of brain uptake,3.4
same,"Biodistribution, blood",[3]; 5 min p.i.,0.76 ± 0.040 %ID/g
same,"Biodistribution, bone",[3]; 5 min p.i.,1.00 ± 0.18 %ID/g
same,"Biodistribution, brain",[3]; 5 min p.i.,0.17 ± 0.014 %ID/g
same,"Biodistribution, heart",[3]; 5 min p.i.,2.34 ± 0.26 %ID/g
same,"Biodistribution, kidney",[3]; 5 min p.i.,16.26 ± 1.82 %ID/g
same,"Biodistribution, large intestine",[3]; 5 min p.i.,2.98 ± 0.94 %ID/g
same,"Biodistribution, liver",[3]; 5 min p.i.,5.12 ± 1.65 %ID/g
same,"Biodistribution, lung",[3]; 5 min p.i.,7.03 ± 1.24 %ID/g
same,"Biodistribution, small intestine",[3]; 5 min p.i.,8.56 ± 2.02 %ID/g
same,"Biodistribution, spleen",[3]; 5 min p.i.,6.54 ± 0.88 %ID/g
same,"Biodistribution, blood",[3]; 10 min p.i.,0.78 ± 0.14 %ID/g
same,"Biodistribution, bone",[3]; 10 min p.i.,1.24 ± 0.44 %ID/g
same,"Biodistribution, brain",[3]; 10 min p.i.,0.14 ± 0.027 %ID/g
same,"Biodistribution, heart",[3]; 10 min p.i.,1.77 ± 0.17 %ID/g
same,"Biodistribution, kidney",[3]; 10 min p.i.,11.86 ± 1.74 %ID/g
same,"Biodistribution, large intestine",[3]; 10 min p.i.,3.06 ± 0.73 %ID/g
same,"Biodistribution, liver",[3]; 10 min p.i.,6.91 ± 2.02 %ID/g
same,"Biodistribution, lung",[3]; 10 min p.i.,5.51 ± 0.44 %ID/g
same,"Biodistribution, small intestine",[3]; 10 min p.i.,11.18 ± 3.11 %ID/g
same,"Biodistribution, spleen",[3]; 10 min p.i.,5.49 ± 1.05 %ID/g
same,"Biodistribution, blood",[3]; 20 min p.i.,0.67 ± 0.19 %ID/g
same,"Biodistribution, bone",[3]; 20 min p.i.,1.18 ± 0.005 %ID/g
same,"Biodistribution, brain",[3]; 20 min p.i.,0.10 ± 0.013 %ID/g
same,"Biodistribution, heart",[3]; 20 min p.i.,1.14 ± 0.040 %ID/g
same,"Biodistribution, kidney",[3]; 20 min p.i.,11.02 ± 0.48 %ID/g
same,"Biodistribution, large intestine",[3]; 20 min p.i.,2.83 ± 0.068 %ID/g
same,"Biodistribution, liver",[3]; 20 min p.i.,6.64 ± 1.44 %ID/g
same,"Biodistribution, lung",[3]; 20 min p.i.,5.52 ± 0.72 %ID/g
same,"Biodistribution, small intestine",[3]; 20 min p.i.,13.02 ± 1.24 %ID/g
same,"Biodistribution, spleen",[3]; 20 min p.i.,5.71 ± 0.69 %ID/g
same,"Biodistribution, blood",[3]; 40 min p.i.,0.48 ± 0.029 %ID/g
same,"Biodistribution, bone",[3]; 40 min p.i.,1.04 ± 0.27 %ID/g
same,"Biodistribution, brain",[3]; 40 min p.i.,0.10 ± 0.011 %ID/g
same,"Biodistribution, heart",[3]; 40 min p.i.,1.01 ± 0.16 %ID/g
same,"Biodistribution, kidney",[3]; 40 min p.i.,8.65 ± 1.21 %ID/g
same,"Biodistribution, large intestine",[3]; 40 min p.i.,2.69 ± 0.26 %ID/g
same,"Biodistribution, liver",[3]; 40 min p.i.,4.76 ± 0.54 %ID/g
same,"Biodistribution, lung",[3]; 40 min p.i.,3.00 ± 1.40 %ID/g
same,"Biodistribution, small intestine",[3]; 40 min p.i.,9.35 ± 1.82 %ID/g
same,"Biodistribution, spleen",[3]; 40 min p.i.,5.80 ± 0.83 %ID/g
same,"Biodistribution, blood",[3]; 60 min p.i.,0.39 ± 0.11 %ID/g
same,"Biodistribution, bone",[3]; 60 min p.i.,1.20 ± 0.34 %ID/g
same,"Biodistribution, brain",[3]; 60 min p.i.,0.05 ± 0.005 %ID/g
same,"Biodistribution, heart",[3]; 60 min p.i.,0.49 ± 0.018 %ID/g
same,"Biodistribution, kidney",[3]; 60 min p.i.,4.27 ± 0.37 %ID/g
same,"Biodistribution, large intestine",[3]; 60 min p.i.,2.50 ± 0.93 %ID/g
same,"Biodistribution, liver",[3]; 60 min p.i.,5.74 ± 1.12 %ID/g
same,"Biodistribution, lung",[3]; 60 min p.i.,1.42 ± 0.22 %ID/g
same,"Biodistribution, small intestine",[3]; 60 min p.i.,12.33 ± 0.81 %ID/g
same,"Biodistribution, spleen",[3]; 60 min p.i.,3.79 ± 0.33 %ID/g
same,Parent compound share of the radioactivity signal,[4],≥ 95%
same,Standardized uptake value in the whole brain,[5]; after 50 min,0.21 SUV
same,Maximum standardized uptake value in the whole brain,"[5]; dynamic PET, tail vein injection",0.47 SUV
